In PubChem BioAssay (NCI):
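Values below derive from 48-hour exposures of cells grown in 96-well plates, with endpoints linearly interpolated between the two concentrations bracketing the appropriate inhibition level. TGI is the concentration that stops growth completely.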

How the values were obtained:
Test in all cases: growth of human tumour cells (NCI), 48 h
CAKI-1 renal = test system: CAKI-1 renal
HCC-2998 colon = test system: HCC-2998 colon
SW-620 colon = test system: SW-620 colon
DMS 273 small cell lung = test system: DMS 273 small cell lung
RXF 393 renal = test system: RXF 393 renal
UO-31 renal = test system: UO-31 renal
KM12 colon = test system: KM12 colon
U251 CNS = test system: U251 CNS
SF-268 CNS = test system: SF-268 CNS
MALME-3M melanoma = test system: MALME-3M melanoma
SK-MEL-28 melanoma = test system: SK-MEL-28 melanoma
HOP-62 NSCLC = test system: HOP-62 NSCLC
HCT-116 colon = test system: HCT-116 colon
SK-MEL-2 melanoma = test system: SK-MEL-2 melanoma
TK-10 renal = test system: TK-10 renal
SF-539 CNS = test system: SF-539 CNS
M19-MEL melanoma = test system: M19-MEL melanoma
HT29 colon = test system: HT29 colon
K-562 leukemia = test system: K-562 leukemia
SN12C renal = test system: SN12C renal
SK-MEL-5 melanoma = test system: SK-MEL-5 melanoma
XF 498 CNS = test system: XF 498 CNS
NCI-H522 lung = test system: NCI-H522 lung
COLO 205 colon = test system: COLO 205 colon
SR leukemia = test system: SR leukemia
DMS 114 small cell lung = test system: DMS 114 small cell lung
IGROV1 ovarian = test system: IGROV1 ovarian
SNB-78 CNS = test system: SNB-78 CNS
MOLT-4 leukemia = test system: MOLT-4 leukemia
NCI-H23 lung = test system: NCI-H23 lung
ACHN renal = test system: ACHN renal
UACC-62 melanoma = test system: UACC-62 melanoma
UACC-257 melanoma = test system: UACC-257 melanoma
NCI-H226 lung = test system: NCI-H226 lung
OVCAR-8 ovarian = test system: OVCAR-8 ovarian
OVCAR-3 ovarian = test system: OVCAR-3 ovarian
DLD-1 colon = test system: DLD-1 colon
SNB-19 CNS = test system: SNB-19 CNS
RXF-631 renal = test system: RXF-631 renal
OVCAR-5 ovarian = test system: OVCAR-5 ovarian
HCT-15 colon = test system: HCT-15 colon
NCI-H460 lung = test system: NCI-H460 lung
A549 NSCLC = test system: A549 NSCLC
LOX IMVI melanoma = test system: LOX IMVI melanoma
LXFL 529 NSCLC = test system: LXFL 529 NSCLC
SNB-75 CNS = test system: SNB-75 CNS
SF-295 CNS = test system: SF-295 CNS
OVCAR-4 ovarian = test system: OVCAR-4 ovarian
M14 melanoma = test system: M14 melanoma
KM20L2 colon = test system: KM20L2 colon
RPMI-8226 leukemia = test system: RPMI-8226 leukemia
EKVX NSCLC = test system: EKVX NSCLC
HOP-18 NSCLC = test system: HOP-18 NSCLC
CCRF-CEM leukemia = test system: CCRF-CEM leukemia
HL-60(TB) leukemia = test system: HL-60(TB) leukemia
786-0 renal = test system: 786-0 renal
HOP-92 NSCLC = test system: HOP-92 NSCLC
SK-OV-3 ovarian = test system: SK-OV-3 ovarian

CCOC(=O)[C@H]1Nc2c(cccc2[N+](=O)[O-])C2c3ccccc3CC21 (stereo partly drawn)
TGI (CAKI-1 renal): > 100 µM
TGI (HCC-2998 colon): > 100 µM
TGI (SW-620 colon): > 100 µM
TGI (DMS 273 small cell lung): > 100 µM
TGI (RXF 393 renal): 45.8 µM
TGI (UO-31 renal): > 100 µM
TGI (KM12 colon): > 100 µM
TGI (U251 CNS): > 100 µM
TGI (SF-268 CNS): > 100 µM
TGI (MALME-3M melanoma): > 100 µM
TGI (SK-MEL-28 melanoma): > 100 µM
TGI (HOP-62 NSCLC): > 100 µM
TGI (HCT-116 colon): > 100 µM
TGI (SK-MEL-2 melanoma): > 100 µM
TGI (TK-10 renal): > 100 µM
TGI (SF-539 CNS): > 100 µM
TGI (M19-MEL melanoma): > 100 µM
TGI (HT29 colon): 74.9 µM
TGI (K-562 leukemia): > 100 µM
TGI (SN12C renal): > 100 µM
TGI (SK-MEL-5 melanoma): > 100 µM
TGI (XF 498 CNS): > 100 µM
TGI (NCI-H522 lung): > 100 µM
TGI (COLO 205 colon): > 100 µM
TGI (SR leukemia): > 100 µM
TGI (DMS 114 small cell lung): > 100 µM
TGI (IGROV1 ovarian): > 100 µM
TGI (SNB-78 CNS): > 100 µM
TGI (MOLT-4 leukemia): > 100 µM
TGI (NCI-H23 lung): > 100 µM
TGI (ACHN renal): > 100 µM
TGI (UACC-62 melanoma): > 100 µM
TGI (UACC-257 melanoma): 98.4 µM
TGI (NCI-H226 lung): > 100 µM
TGI (OVCAR-8 ovarian): > 100 µM
TGI (OVCAR-3 ovarian): > 100 µM
TGI (DLD-1 colon): > 100 µM
TGI (SNB-19 CNS): > 100 µM
TGI (RXF-631 renal): > 100 µM
TGI (OVCAR-5 ovarian): > 100 µM
TGI (HCT-15 colon): > 100 µM
TGI (NCI-H460 lung): > 100 µM
TGI (A549 NSCLC): > 100 µM
TGI (LOX IMVI melanoma): > 100 µM
TGI (LXFL 529 NSCLC): > 100 µM
TGI (SNB-75 CNS): > 100 µM
TGI (SF-295 CNS): > 100 µM
TGI (OVCAR-4 ovarian): > 100 µM
TGI (M14 melanoma): > 100 µM
TGI (KM20L2 colon): > 100 µM
TGI (RPMI-8226 leukemia): > 100 µM

CC(=O)c1c(O)c2c([nH]c1=O)CCCC2
TGI (CAKI-1 renal): > 100 µM
TGI (HCC-2998 colon): 53.4 µM
TGI (SW-620 colon): > 100 µM
TGI (EKVX NSCLC): > 100 µM
TGI (DMS 273 small cell lung): 70.5 µM
TGI (RXF 393 renal): 67.6 µM
TGI (UO-31 renal): 31.2 µM
TGI (U251 CNS): 60.9 µM
TGI (SF-268 CNS): > 100 µM
TGI (MALME-3M melanoma): > 100 µM
TGI (SK-MEL-28 melanoma): > 100 µM
TGI (HOP-62 NSCLC): 46.5 µM
TGI (TK-10 renal): > 100 µM
TGI (HOP-18 NSCLC): > 100 µM
TGI (CCRF-CEM leukemia): > 100 µM
TGI (M19-MEL melanoma): 44.3 µM
TGI (HT29 colon): > 100 µM
TGI (K-562 leukemia): > 100 µM
TGI (SN12C renal): 45.1 µM
TGI (HL-60(TB) leukemia): > 100 µM
TGI (XF 498 CNS): > 100 µM
TGI (COLO 205 colon): > 100 µM
TGI (DMS 114 small cell lung): > 100 µM
TGI (IGROV1 ovarian): > 100 µM
TGI (SNB-78 CNS): > 100 µM
TGI (MOLT-4 leukemia): > 100 µM
TGI (NCI-H23 lung): > 100 µM
TGI (ACHN renal): > 100 µM
TGI (UACC-62 melanoma): 43.3 µM
TGI (OVCAR-8 ovarian): > 100 µM
TGI (OVCAR-3 ovarian): > 100 µM
TGI (DLD-1 colon): > 100 µM
TGI (SNB-19 CNS): 33.9 µM
TGI (RXF-631 renal): 59.2 µM
TGI (786-0 renal): > 100 µM
TGI (HCT-15 colon): > 100 µM
TGI (NCI-H460 lung): 30.5 µM
TGI (HOP-92 NSCLC): > 100 µM
TGI (A549 NSCLC): > 100 µM
TGI (LOX IMVI melanoma): > 100 µM
TGI (LXFL 529 NSCLC): > 100 µM
TGI (SNB-75 CNS): 29 µM
TGI (SF-295 CNS): 39.7 µM
TGI (SK-OV-3 ovarian): 48.5 µM
TGI (OVCAR-4 ovarian): > 100 µM
TGI (M14 melanoma): > 100 µM
TGI (KM20L2 colon): > 100 µM
